From patent US20060270643A1, “Hyfroxyflutamide induced pathways related to androgen receptor negative prostate cancer cells” (priority 2002, published 2006) come the findings set out here.

Assay [1] concerns MAP kinase in CWR22 cells. The experiment in a line: Immunoblot of phospho-ERK1/2 in CWR22 cells. Format: cell-based, human. The note with it: 15 mins.
The target in assay [2] is T1, AR (Homo sapiens, UniProt P10275).
T1 sequence (P10275 1-920): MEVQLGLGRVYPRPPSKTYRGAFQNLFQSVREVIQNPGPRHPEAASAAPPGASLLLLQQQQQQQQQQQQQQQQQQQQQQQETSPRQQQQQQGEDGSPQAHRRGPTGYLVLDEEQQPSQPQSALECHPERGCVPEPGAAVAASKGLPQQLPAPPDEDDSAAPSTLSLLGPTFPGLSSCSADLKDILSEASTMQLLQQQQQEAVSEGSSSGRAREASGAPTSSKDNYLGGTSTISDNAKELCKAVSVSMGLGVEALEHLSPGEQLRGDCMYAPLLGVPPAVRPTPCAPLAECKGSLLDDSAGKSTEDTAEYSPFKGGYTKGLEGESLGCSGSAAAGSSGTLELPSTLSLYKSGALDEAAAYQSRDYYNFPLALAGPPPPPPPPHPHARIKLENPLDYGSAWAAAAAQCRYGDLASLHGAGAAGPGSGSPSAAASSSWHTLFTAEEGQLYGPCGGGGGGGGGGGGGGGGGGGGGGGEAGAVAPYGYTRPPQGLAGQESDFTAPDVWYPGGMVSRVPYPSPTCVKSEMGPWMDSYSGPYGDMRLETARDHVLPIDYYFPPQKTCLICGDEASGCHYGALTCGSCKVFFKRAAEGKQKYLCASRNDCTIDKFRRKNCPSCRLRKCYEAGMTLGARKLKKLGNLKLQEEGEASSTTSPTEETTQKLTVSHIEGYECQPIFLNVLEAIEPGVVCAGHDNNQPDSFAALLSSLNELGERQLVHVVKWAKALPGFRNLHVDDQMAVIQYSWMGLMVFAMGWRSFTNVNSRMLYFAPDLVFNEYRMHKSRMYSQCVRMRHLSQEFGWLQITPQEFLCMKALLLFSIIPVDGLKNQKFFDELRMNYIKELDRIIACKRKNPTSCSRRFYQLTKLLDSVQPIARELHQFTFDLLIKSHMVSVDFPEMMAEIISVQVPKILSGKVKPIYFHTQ
The assay can be described thus: AR/DHT mediated PSA transcriptional activity (luciferase reporter) in DU145 cells. In kind it is cell-based. The note with it: 1 μM of HF, 1 nM DHT, DU145 cells cotransfected with AR. (In general: Reporter assays use an easily measured gene product as a stand-in for the process of interest.)

Assay [3] concerns DU145 cells. The experiment in a line: Cell proliferation assay (hemacytometer counting). In kind it is cell-based, human. On the procedure: 10. […] (A) DU145 cells were seeded in 10% FBS DMEM medium and 24 hours later cells were changed to serum free medium. 48 hours later changed the medium to 0.5% FBS medium and treated with ethanol, HF, or EGF. Every 24 hours, the cells were counted by hemacytometer. […]. […] (B) DU145 cells were seeded and transfected with anti-sense oligonucleotide of Ras (IRIS 2503: 5′-[…]-3′), Raf (IIUS: 5132:5′-[…]-3′) and HIV (5′-[…]-3′) (Chen, G., Oh, S., Monia B. P., and Stacey, D. W., J. Biol. Chem., 271: 28259-28265, 1996, Monia, B. P., et al., Proc. Natl. Acad. Sci. USA, 93: 15481-15484, 1996.) by SuperFect (Qiagen). 24 hour after serum starvation, we changed the cells to medium containing 0.5% FBS, and treated the cells as described in A. Cells were counted by hemacytometer every 24 hours. The cell lysate were blotted with anti-H-Ras and Raf antibodies and β-actin was blotted for loading control.
199. DU145 cells were seeded at 2×10^4/ml on 35 mm plates and allowed to attach overnight. Cells were kept in serum-free DMEM medium for 24 hours, and then media were replaced with DMEM-0.5% FBS and treated as indicated. Cells were trypsinized and counted with a hemacytometer at different times after treatments. For the antisense oligonuleotide experiments, cells were incubated with a fixed ratio of oligonucleotide versus SuperFect (2.5 μl of SuperFect per 100 nM oligo) for 4 hours and then the oligo-containing medium was replaced with DMEM-0.5% FBS. Cells were trypsinized and counted by hemacytometer at indicated times.

“Also recorded” adds a separate entry of the source.

Take `CC(C)(O)C(=O)Nc1ccc([N+](=O)[O-])c(C(F)(F)F)c1` [HF, hydroxyflutamide]: in assay [1], the MAP kinase activation entry was “activates MAP kinase”. Also, the “DHT induced PSA-Luc activity” value in assay [2] was “represses DHT induced PSA-Luc activity”. The cell proliferation result in assay [3] (cells maintained in 10% FBS medium (data not shown)) is given as “no significant stimulation of cell proliferation”; in assay [3] (low serum (0.5% FBS) after serum starvation), “stimulate the DU 145 cell growth significant; also recorded: can promote cell proliferation”.
